Assay [1] deals with T1, Full-length (FL)-PRMT5-MEP50 enzyme complex (Homo sapiens, UniProt O14744).
T1 construct: Full-length (FL)-PRMT5-MEP50 enzyme complex (recombinant proteins from baculovirus-transfected Sf21 cells: FL-PRMT5; MW=73837 kDa and FL-MEP50; MW=38614); made in house; host or cells: baculovirus-transfected Sf21 cells
In words: PRMT5-MEP50 Enzyme Methylation Assay (Version A). The assay is classed as biochemical. Put shortly:
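Compound was pre-incubated with enzyme for 60 min, then reacted 150 min at 37° C. at final 1.0 nM PRMT5-MEP50, 15 μM SAM and 75 nM biotinylated H4R3(Me1) peptide, in 50 mM Bicine pH 8.0 with 1% DMSO. SAMDI mass-spectrometric readout of Me1→Me2 conversion. EC50 from 4- or 7-parameter regression.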

Assay [2] concerns symmetric dimethylation of arginine (SDMA) of PRMT5 substrates in MCF-7 cells. The experiment in a line: PRMT5 Cell Target Engagement (TE) Assay. The assay is classed as cell-based. The conditions noted are these: 3 days treatment, SDMA high content imaging. Put shortly: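 Readout is single-cell nuclear symmetric-dimethylarginine immunofluorescence (Alexa488), normalized to DMSO-treated cells. Compounds were applied to MCF-7 cells for 3 days at 37 °C, top concentration 10000 nM in 1:3 steps over ten points; curves fitted with 4-parameter robust fit.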

Where [3] appears, read: second value of 7 parameter biphasic fit, read-out: Enzyme Methylation Assay Version A (EC50 2).
[4] abbreviates: single EC50 = 4 parameter single site sigmoidal fit, EC50 1 = first value of 7 parameter biphasic fit, read-out: Enzyme Methylation Assay Version A (EC50 or EC50 1).

Read-outs that look alike come from different tables or passages of the source. Bounds are passed on as bounds.

In general, EC50 refers to the concentration that produces a half-maximal response.

T1 sequence (O14744 whole entry): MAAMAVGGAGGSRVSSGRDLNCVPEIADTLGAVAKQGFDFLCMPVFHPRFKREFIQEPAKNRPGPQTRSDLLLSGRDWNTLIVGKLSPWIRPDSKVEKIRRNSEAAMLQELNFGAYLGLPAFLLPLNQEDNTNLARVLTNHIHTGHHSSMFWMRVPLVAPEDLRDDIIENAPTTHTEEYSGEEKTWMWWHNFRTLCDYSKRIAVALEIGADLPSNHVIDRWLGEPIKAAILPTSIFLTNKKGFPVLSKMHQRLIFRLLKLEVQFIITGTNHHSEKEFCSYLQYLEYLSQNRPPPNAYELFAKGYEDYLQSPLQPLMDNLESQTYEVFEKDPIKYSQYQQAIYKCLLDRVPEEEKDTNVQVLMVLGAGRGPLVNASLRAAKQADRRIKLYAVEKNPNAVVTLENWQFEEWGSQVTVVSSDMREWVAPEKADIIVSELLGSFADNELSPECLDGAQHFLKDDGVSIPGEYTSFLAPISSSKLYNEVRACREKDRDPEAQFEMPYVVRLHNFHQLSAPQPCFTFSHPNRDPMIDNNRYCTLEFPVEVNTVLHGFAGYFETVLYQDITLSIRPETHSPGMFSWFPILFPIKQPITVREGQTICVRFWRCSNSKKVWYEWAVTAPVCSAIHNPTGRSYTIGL
T1 sequence (Q9BQA1 whole entry partner): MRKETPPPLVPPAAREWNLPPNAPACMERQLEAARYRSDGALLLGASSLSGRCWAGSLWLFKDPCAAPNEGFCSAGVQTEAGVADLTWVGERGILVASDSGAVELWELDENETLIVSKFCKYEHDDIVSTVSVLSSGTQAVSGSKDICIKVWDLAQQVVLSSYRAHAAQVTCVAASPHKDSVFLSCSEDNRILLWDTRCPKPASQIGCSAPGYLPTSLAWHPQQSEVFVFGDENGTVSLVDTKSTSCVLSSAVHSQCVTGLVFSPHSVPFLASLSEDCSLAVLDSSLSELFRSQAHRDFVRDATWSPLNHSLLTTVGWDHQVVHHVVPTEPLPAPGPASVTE

`Cc1cn2cc(C(=O)N3CC[C@]4(Cc5ccccc5CN4)[C@H](O)C3)nc2nc1O` [Example 131, 2-{[(3R,3′R)-3′-hydroxy-1,4-dihydro-1′H,2H-spiro[isoquinoline-3,4′-piperidin]-1′-yl]carbonyl}-6-methylimidazo[1,2-a]pyrimidin-7(1H)-one]: the EC50 in assay [1] (setting [3]) is 74100 nM; in assay [1] (setting [4]), 70.8 nM; in assay [2] (Homo sapiens, MCF7, 72 h), ≥ 10000 nM.

For `CC1(C)CC1(C#N)c1cnc2nc(C(=O)N3CC[C@]4(Cc5ccccc5CN4)[C@H](O)C3)cn2c1` (single isomer, unassigned) [Example 148], the values for the EC50 in assay [1] (setting [3]), in assay [1] (setting [4]) and in assay [2] were 1910 nM, 1.11 nM and 121 nM, respectively.

On to `Cc1ccc(C(=O)N2CC[C@]3(Cc4ccccc4CN3)[C@H](O)C2)c(C)n1` [Example 220, (2,6-dimethyl-3-pyridinyl)[(3R,3′R)-3′-hydroxy-1,4-dihydro-1′H,2H-spiro[isoquinoline-3,4′-piperidin]-1′-yl]methanone], for which the EC50 in assay [1] (setting [3]) worked out at 2600 nM; in assay [1] (setting [4]), 83.2 nM; in assay [2] (Homo sapiens, MCF7, 72 h) it was 2100 nM.

As to `O=C(c1cn(-c2ccc(F)cc2)cn1)N1CC[C@]2(Cc3ccccc3CN2)[C@H](O)C1` [Example 212, [1-(4-fluorophenyl)-1H-imidazol-4-yl][(3R,3′R)-3′-hydroxy-1,4-dihydro-1′H,2H-spiro[isoquinoline-3,4′-piperidin]-1′-yl]methanone], the EC50 came out at 21400 nM in assay [1] (setting [3]); 902 nM in assay [1] (setting [4]); 3120 nM in assay [2] (Homo sapiens, MCF7, 72 h).

With `CC1(C)CC1(C#N)c1cnc2nc(C(=O)N3CC[C@]4(Cc5ccccc5CN4)[C@H](O)C3)cn2c1` (single isomer, unassigned) [Example 147], the EC50 in assay [1] (setting [4]) is 0.409 nM; in assay [2], 2.28 nM.

Consider `COC(C)c1cnc2nc(C(=O)N3CC[C@]4(Cc5ccccc5CN4)[C@H](O)C3)cn2c1` (single isomer, unassigned) [Example 136], for which the EC50 in assay [1] (setting [4]) was found to be 32.9 nM; in assay [2] (Homo sapiens, MCF7, 72 h), 146 nM.

For the molecule `O=C(c1cn2cc(C(F)(F)F)cc(C3CCOC3)c2n1)N1CC[C@]2(Cc3ccccc3CN2)[C@H](O)C1` (stereo partly drawn) [Example 154, ((3R,3′R)-3′-hydroxy-2,4-dihydro-1H-spiro[isoquinoline-3,4′-piperidin]-1′-yl)(8-(tetrahydrofuran-3-yl)-6-(trifluoromethyl)imidazo[1,2-a]pyridin-2-yl)methanone], the EC50 was 266 nM in assay [1] (setting [3]); 0.802 nM in assay [1] (setting [4]); 4.42 nM in assay [2] (Homo sapiens, MCF7, 72 h).

Take `COC(C)c1cc(C)c2nc(C(=O)N3CC[C@]4(Cc5ccccc5CN4)[C@H](O)C3)cn2c1` (single isomer, unassigned) [Example 122]: the results for the EC50 in assay [1] (setting [3]), in assay [1] (setting [4]) and in assay [2] were 144 nM, 0.304 nM and 5.56 nM, respectively.

Take `O=C(c1cn2cc(Br)cnc2n1)N1CC[C@]2(Cc3ccccc3CN2)[C@H](O)C1` [Example 24, (6-bromoimidazo[1,2-a]pyrimidin-2-yl)((3R,3’RR)-3′-hydroxy-1,4-dihydro-1′H,2H-spiro[isoquinoline-3,4′-piperidin]-1′-yl)methanone]: the concentration giving a half-maximal response (EC50) is 146 nM in assay [1] (setting [3]); 0.461 nM in assay [1] (setting [4]); 4.09 nM in assay [2] (Homo sapiens, MCF7, 72 h).

`O=C(c1nccn2nccc12)N1CC[C@]2(Cc3ccccc3CN2)[C@H](O)C1` [Example 185, ((3R,3′R)-3′-hydroxy-1,4-dihydro-2H-spiro[isoquinoline-3,4′-piperidin]-1′-yl)(pyrazolo[1,5-a]pyrazin-4-yl)methanone]: the EC50 in assay [1] (setting [3]) was found to be 26900 nM; in assay [1] (setting [4]), 24 nM; in assay [2] (Homo sapiens, MCF7, 72 h), 1540 nM.

For the molecule “A diastereomer of [(3R,3′R)-3′- hydroxy-1,4-dihydro-1′H,2H- spiro[isoquinoline-3,4′-piperidin]-1′- yl][6-isopropyl-8-(1- methoxyethyl)imidazo[1,2- a]pyridin-2-yl]methanone [Example 85]”, the figures for the EC50 in assay [1] (setting [3]), in assay [1] (setting [4]) and in assay [2] were 3060 nM, 5.6 nM and 115 nM, respectively.

Regarding `COC(C)c1cc(C(F)F)cn2cc(C(=O)N3CC[C@]4(Cc5ccccc5CN4)[C@H](O)C3)nc12` (single isomer, unassigned) [Example 80], the EC50 came out at 1.25 nM in assay [1] (setting [4]) and 8.38 nM in assay [2].

Regarding `Cc1cc(Cl)c2nc(C(=O)N3CC[C@]4(Cc5ccccc5CN4)[C@H](O)C3)cn2c1` [Example 207, (8-chloro-6-methylimidazo[1,2-a]pyridin-2-yl)[(3R,3′R)-3′-hydroxy-1,4-dihydro-1′H,2H-spiro[isoquinoline-3,4′-piperidin]-1′-yl]methanone], the concentration for a half-maximal effect (EC50) in assay [1] (setting [3]) was found to be 288 nM; in assay [1] (setting [4]), 0.382 nM; in assay [2] (Homo sapiens, MCF7, 72 h), 27.6 nM.

Turning to `O=C(c1cn2c(n1)CCC(C(F)(F)F)C2)N1CC[C@]2(Cc3ccccc3CN2)[C@H](O)C1` (stereo partly drawn) [Example 54, [(3R,3′R)-3′-hydroxy-1,4-dihydro-1′H,2H-spiro[isoquinoline-3,4′-piperidin]-1′-yl][6-(trifluoromethyl)-5,6,7,8-tetrahydroimidazo[1,2-a]pyridin-2-yl]methanone], the EC50 was 2660 nM in assay [1] (setting [3]); 8.01 nM in assay [1] (setting [4]); 169 nM in assay [2] (Homo sapiens, MCF7, 72 h).

With `CNC(=O)c1cc(Br)cn2cc(C(=O)N3CC[C@]4(Cc5ccccc5CN4)[C@H](O)C3)nc12` [Example 51, 6-bromo-2-((3R,3’R)-3′-hydroxy-1,4-dihydro-2H-spiro[isoquinoline-3,4′-piperidine]-1′-carbonyl)-N-methylimidazo[1,2-a]pyridine-8-carboxamide], the EC50 was determined as 1500 nM in assay [1] (setting [3]); 7.02 nM in assay [1] (setting [4]); 13.7 nM in assay [2] (Homo sapiens, MCF7, 72 h).

For `Cc1ccc(C(=O)N2CC[C@]3(Cc4ccccc4CN3)[C@H](O)C2)cn1` [Example 221, [(3R,3′R)-3′-hydroxy-1,4-dihydro-1′H,2H-spiro[isoquinoline-3,4′-piperidin]-1′-yl](6-methyl-3-pyridinyl)methanone], the EC50 in assay [1] (setting [3]) amounted to 3510 nM; in assay [1] (setting [4]), 43.6 nM; in assay [2] (Homo sapiens, MCF7, 72 h) it was 2540 nM.

As for `CN1CC(C2CC2)Cn2cc(C(=O)N3CC[C@]4(Cc5ccccc5CN4)[C@H](O)C3)nc21` (single isomer, unassigned) [Example 142], the EC50 stood at 1860 nM in assay [1] (setting [3]), 29.5 nM in assay [1] (setting [4]) and 620 nM in assay [2].

As to `COC(C)c1cc(C2CC2)cn2cc(C(=O)N3CC[C@]4(Cc5ccccc5CN4)[C@H](O)C3)nc12` (stereo partly drawn) [Example 132, [6-cyclopropyl-8-(1-methoxyethyl)imidazo[1,2-a]pyridin-2-yl][(3R,3′R)-3′-hydroxy-1,4-dihydro-1′H,2H-spiro[isoquinoline-3,4′-piperidin]-1′-yl]methanone], the EC50 came to 123 nM in assay [1] (setting [3]); 0.244 nM in assay [1] (setting [4]); 6.61 nM in assay [2] (Homo sapiens, MCF7, 72 h).

`CC(C#N)c1ccc2nc(C(=O)N3CC[C@]4(Cc5ccccc5CN4)[C@H](O)C3)cn2c1` (stereo partly drawn) [Example 69, 2-(2-{[(3R,3′R)-3′-hydroxy-1,4-dihydro-1′H,2H-spiro[isoquinoline-3,4′-piperidin]-1′-yl]carbonyl}imidazo[1,2-a]pyridin-6-yl)propanenitrile]: the EC50 in assay [1] (setting [3]) was 43.6 nM; in assay [1] (setting [4]), 0.405 nM; in assay [2] (Homo sapiens, MCF7, 72 h) it was 12.7 nM.

Consider `CC(O)c1cc(Br)cn2cc(C(=O)N3CC[C@]4(Cc5ccccc5CN4)[C@H](O)C3)nc12` (single isomer, unassigned) [Example 32, (6-bromo-8-((R or S)-1-hydroxyethyl)imidazo[1,2-a]pyridin-2-yl)((3R,3’R)-3′-hydroxy-1,4-dihydro-2H-spiro[isoquinoline-3,4′-piperidin]-1′-yl)methanone], for which the half-maximal effective concentration (EC50) is 282 nM in assay [1] (setting [3]); 0.844 nM in assay [1] (setting [4]); 5.15 nM in assay [2] (Homo sapiens, MCF7, 72 h).

In the case of `O=C(c1cnc2ncc(Cl)cn12)N1CC[C@]2(Cc3ccccc3CN2)[C@H](O)C1` [Example 56, (6-chloroimidazo[1,2-a]pyrimidin-3-yl)[(3R,3′R)-3′-hydroxy-1,4-dihydro-1′H,2H-spiro[isoquinoline-3,4′-piperidin]-1′-yl]methanone], the EC50 in assay [1] (setting [3]) worked out at 10000 nM; in assay [1] (setting [4]), 12.4 nM; in assay [2] (Homo sapiens, MCF7, 72 h) it was 82.1 nM.

Turning to `O=C(c1cn2cc(Br)cc(C(F)(F)F)c2n1)N1CC[C@]2(Cc3ccccc3CN2)[C@H](O)C1` [Example 55, [6-bromo-8-(trifluoromethyl)imidazo[1,2-a]pyridin-2-yl][(3R,3′R)-3′-hydroxy-1,4-dihydro-1′H,2H-spiro[isoquinoline-3,4′-piperidin]-1′-yl]methanone], the EC50 in assay [1] (setting [3]) was 170 nM; in assay [1] (setting [4]), 0.817 nM; in assay [2] (Homo sapiens, MCF7, 72 h), 1.17 nM.

Consider `Cc1ccc(C(=O)N2CC[C@]3(Cc4ccccc4CN3)[C@H](O)C2)c(Cl)n1` [Example 204, (2-chloro-6-methyl-3-pyridinyl)[(3R,3′R)-3′-hydroxy-1,4-dihydro-1′H,2H-spiro[isoquinoline-3,4′-piperidin]-1′-yl]methanone], for which the EC50 in assay [1] (setting [3]) was found to be 14600 nM; in assay [1] (setting [4]), 21.9 nM; in assay [2] (Homo sapiens, MCF7, 72 h), 1590 nM.

As to `CO[C@H](C)c1cc(N(C)Cc2nonc2C)cn2cc(C(=O)N3CC[C@]4(Cc5ccccc5CN4)[C@H](O)C3)nc12` [Example 234, [(3R,3′R)-3′-hydroxy-1,4-dihydro-1′H,2H-spiro[isoquinoline-3,4′-piperidin]-1′-yl](8-[(1R)-1-methoxyethyl]-6-{methyl[(4-methyl-1,2,5-oxadiazol-3-yl)methyl]amino}imidazo[1,2-a]pyridin-2-yl)methanone], the EC50 in assay [1] (setting [4]) worked out at 6.82 nM; in assay [2] (Homo sapiens, MCF7, 72 h) it was 23.8 nM.

The values are drawn from patent publication US12441730B2, “PRMT5 inhibitors” (Merck Sharp & Dohme LLC, priority 2019, dated 2025).
